These results are taken from US10053447B2, “Fluorescent compounds” (Pierce Biotechnology, Inc, priority 2010, dated 2018).

The target of data set [1] is T1, streptavidin (SA) (Streptomyces avidinii, UniProt P22629). In words: Labeling efficiency (degree of labeling, mole dye to mole protein ratio) of streptavidin. Particulars: SA, NHS ester, 5X molar excess. As for the experimental part:
Inventive and commercial compounds, each as the NHS ester, were conjugated to goat anti-mouse (GAM), goat anti-rabbit (GAR) antibodies, and streptavidin (SA). GAM, GAR, and SA, at 10 mg/ml in phosphate buffered saline (PBS), were dialyzed against 50 mM borate buffer, pH 8.5. The compounds were reconstituted in dimethylformamide (DMF) at 10 mg/ml and combined at 2×, 4×, 5×, 7.5×, or 10× molar excess with GAM, GAR, or SA for 2 h at room temperature to label the antibodies or SA.
The labeled compounds, also termed dyes or labels, were subjected to PDDR to remove the unlabeled (free) compound; 100 μl of the packed resin was used per mg of protein purified. The purified antibody-labeled dyes were then diluted 1:50 in PBS and scanned for absorbance from 700 nm to 230 nm to determine the protein concentration, and to determine the mole dye to mole protein ratio. Each conjugate was diluted 1:10 in 50% glycerol and heated in the presence of 10 mM dithiothreitol (DTT) for 5 min at 95° C., then separated by electrophoresis on polyacrylamide gels in the presence of sodium dodecyl sulfate (SDS-PAGE). The gels were scanned using the Typhoon 9400 Imager to verify removal of the unconjugated compound. Labeling efficiency was compared, with results showing degree of labeling below.
Compounds 1, 2, and 3, each as the NHS ester, and DyLight 649-NHS were conjugated to goat anti-mouse (GAM) and goat anti-rabbit (GAR) antibodies. GAM and GAR, at a concentration of 10 mg/ml in phosphate buffered saline (PBS), were dialyzed against 50 mM borate buffer, pH 8.5. The compounds were reconstituted in dimethylformamide (DMF) at 10 mg/ml. To label the antibodies, the compounds were added at 2.5× molar excess and 5× molar excess for 2 h at room temperature. Streptavidin (SA) was reconstituted in PBS buffer, pH 7.2, and 50 mM borate buffer, pH 8.5, and labeled with 2.5× molar excess and 4× molar excess of the compound.
The antibody-labeled compounds, also termed dyes or labels, were subjected to gel filtration chromatography (15 cm×0.8 cm columns) or to the PDDR to remove the unlabeled (free) compound; 100 μl of the packed resin was used per mg of protein purified. The purified antibody-labeled dyes were then diluted 1:100 in PBS and scanned for absorbance from 700 nm to 230 nm to determine the protein concentration, and to determine the mole dye to mole protein ratio. Each conjugate was diluted 1:10 in 50% glycerol and heated in the presence of 10 mM dithiothreitol (DTT) for 5 min at 95° C., then separated by electrophoresis on polyacrylamide gels in the presence of sodium dodecyl sulfate (SDS-PAGE). The gels were scanned using the Typhoon 9400 Imager to verify removal of the unconjugated compound. Labeling efficiency was compared using labeling of the compounds to GAM antibody at a 2.5× molar excess of compound, with results shown below.
Labeling efficiency was also compared using labeling of the dyes to streptavidin (SA) at either a 2.5 fold or a 4 fold molar excess of the dye, with SA in PBS, pH 7.2, and borate buffer, pH 8.5.
650 Compound 1 (isomer 2)-TFP, 650 Compound 1 (isomer 1)-TFP, 650 Compound 1 (isomer 2)-TFP, 650 Compound 1-NHS, and DyLight 649-NHS were conjugated to GAM, GAR, and SA. GAM and GAR, at a concentration of 10 mg/ml in phosphate buffered saline (PBS), were dialyzed against 50 mM borate buffer, pH 8.5. The compounds were reconstituted in dimethylformamide (DMF) at 10 mg/ml and used to label antibodies at 5× molar excess of compound for two hours at room temperature to label the antibodies. SA was reconstituted in 50 mM borate buffer, pH 8.5, and combined with 4× molar excess to label the SA.
The antibody-conjugated and SA-conjugated compounds, also termed dyes or labels, were subjected to the PDDR to remove the unlabeled (free) compound. The purified antibodies and SA were then diluted 1:25 in PBS and scanned for absorbance from 700 nm to 230 nm to determine the protein concentration, and to determine the mole dye to mole protein ratio. […]

Data set [2] concerns the target T1, streptavidin (SA). The description is as above. Particulars: NHS ester, 3X molar excess.
The subject of a further data set is IMR90 cells. The data set can be described thus: Direct fluorescence labeling of cell surface proteins. The data set is classed as cell-based, human. Particulars: 6 μm, 3 μm, 1.5 μm, and 0.75 μm as printed; 30 min. As for the experimental part: The inventive compounds and commercial dyes were evaluated in direct fluorescence labeling of cell surface proteins using the following protocol. DyLight 549-NHS, 550 Compound 1-NHS, and Whole Cell Stain Orange (Thermo Fisher Scientific) were reconstituted in DMF and diluted to 6 μM in Dulbecco's PBS (DPBS). A total of four 1:1 serial dilutions of the dyes were prepared in DPBS. Frozen IMR90 cells (human lung embryonic fibroblast) on a plate were thawed for 1 h at 37° C. The cell plates were washed two times with DPBS and incubated with dye dilutions for 30 min at room temperature protected from light. The cell plates were then washed three times with DPBS. The cell plates were incubated with 100 μl/well of 1 μg/ml Hoechst dye in DPBS. The cell plates were sealed and imaged using the Thermo Scientific ArrayScan VTI HCS Reader.
The inventive compounds and commercial dye were evaluated in direct fluorescence labeling of cell surface proteins. DyLight 649-NHS, 650 Compound 1-NHS, and Whole Cell Stain Orange (Thermo Fisher Scientific) were reconstituted in DMF and diluted to 6 μM in Dulbecco's PBS (DPBS). A total of four 1:1 serial dilutions of the dyes were prepared in DPBS. Frozen IMR90 cells (human lung embryonic fibroblast) on a plate were thawed for 1 h at 37° C. […] The cell plates were sealed and imaged using the Thermo Scientific ArrayScan VTI HCS Reader.

A short description of data set [3]: Spectral properties of the dyes compared with commercially available dyes. The data set is classed as physicochemical. Particulars: reactive ester form of the dye.
A further data set deals with U2OS cells; A550 cells. In words: Immunofluorescence cell based assays, summary statements. More on the design: species or system human. Conditions: GAM and GAR conjugates. As for the experimental part: The inventive compounds and commercial dye were evaluated for immunofluorescence in cell based assays using the following protocol. Plates containing U2OS cells (human osteosarcoma cell line) were fixed in 4% paraformaldehyde in PBS/0.1% Triton X-100 for 15 min at room temperature. The cells were then permeabilized with 2% BSA in PBS/0.1% Triton X-100 for 30 min at room temperature. Diluted primary antibodies in PBS/0.1% Triton X-100 were added to the plates and incubated overnight at 4° C. The plates were washed 3×100 μl with PBS. Based on the calculated protein concentrations, the conjugates were diluted to 4 μg/ml (1:250 from 1 mg/ml stock) in PBS/0.1% Triton X-100 and added to the plates (50 μl/well) and incubated 1 h in the dark at room temperature. The plates were washed 3×100 μl with PBS. One hundred μl of 2 μg/ml Hoechst dye in PBS was added per well. The plates were then scanned on an ArrayScan® Plate Reader for imaging and quantitation.
The inventive compounds and commercial dyes were evaluated for immunofluorescence in cell based assays using the following protocol. Plates containing A550 cells (adenocarcinoma human alveolar basal epithelial cells, P5, Sep. 23, 2010) and stored at −80° C. were placed at 50° C. for 30 min. The storage buffer (PBS) was removed and then the cells were permeabilized for 15 min (100 μl/well) with 0.1% Triton-X100 in 1×PBS buffer. The plates were blocked for 30 min in 2% BSA in 1×PBS-0.1% Triton-X100 and then incubated with primary antibodies diluted in 2% BSA in 1×PBS, 0.1% Trion-X100, overnight at 4° C. […] The remaining wells were incubated in blocking buffer only (no primary antibody). After overnight incubation, the antibody solution was removed from the wells, and the plates were washed with PBS-Tween (2×100 μl/well). The labeled secondary antibody conjugates, diluted to 4 μg/ml in PBS were added to corresponding wells and incubated for 1 h at room temperature (about 20° C. to about 22° C.). The plates were washed 3×100 μl/well with PBS and Hoechst stain diluted 1 μg/ml in PBS were added to each well (100 μl/well) of each plate. The plates were then scanned on the Thermo Scientific ArrayScan® HCS Reader for imaging and quantitation.

Data set [4] deals with mouse IgG, rabbit IgG, biotinylated bovine serum albumin (BBSA). In words: Functional assay, summary over GAM, GAR and SA conjugates. The data set is classed as binding. Conditions: compared with DyLight 549 or DyLight 649 conjugates. As for the experimental part: Performance of the dye-GAM conjugates, dye-GAR conjugates, and dye-SA conjugates was evaluated in a functional assay. Wells of a 96 white opaque plate were coated with target proteins mouse IgG immunoglobulin, rabbit IgG immunoglobulin, or biotinylated bovine serum albumin (BBSA). One hundred μl mouse or rabbit IgG or BBSA at a concentration of 10 μg/ml was applied to the corresponding wells in columns 1 and 2. The target proteins were serially diluted 1:1 from the wells in columns 2 to 11 using 100 μl PBS. One hundred 100 μl of the samples from the wells in column 11 were discarded. One hundred μl PBS was added to the wells in column 12. The plates were incubated overnight at 4° C. and then blocked 2×200 μl with Thermo Scientific SuperBlock® Blocking Buffer. The coated plates were washed 2×200 μl with PBS-Tween and 1×200 μl with PBS. Conjugates diluted in PBS to 4 μg/ml were added to the corresponding plates (100 μl/well) and then incubated for 1 h in the dark. The plates were washed with 2×200 μl with PBS-Tween and 1×200 μl with PBS and filled with PBS buffer (100 μl/well) prior to scanning on Tecan Safire using 562 nmexcitation/576 nmemission to detect fluorescence intensity.
Performance of the dye-GAM conjugates and dye-GAR conjugates was evaluated in a functional assay. Wells of a 96 well white opaque plate were coated with mouse IgG, or rabbit IgG. One hundred μl mouse or rabbit IgG at a concentration of 10 μg/ml was applied to the corresponding wells in columns 1 and 2. The IgG proteins were serially diluted 1:1 from the wells in columns 2 to 11 using 100 μl PBS. One hundred 100 μl of the samples from the wells in column 11 were discarded. One hundred μl PBS was added to the wells in column 12. […] The plates were washed with 2×200 μl with PBS-Tween and 1×200 μl with PBS and filled with PBS buffer (100 μl/well) prior to scanning on Tecan Safire using the Alexa 647 setting (650 nmexcitation/665 nmemission) and the DyLight 649 setting (654 nmexcitation/673 nmemission to detect fluorescence intensity

T1 sequence (P22629 25-183, species assumed): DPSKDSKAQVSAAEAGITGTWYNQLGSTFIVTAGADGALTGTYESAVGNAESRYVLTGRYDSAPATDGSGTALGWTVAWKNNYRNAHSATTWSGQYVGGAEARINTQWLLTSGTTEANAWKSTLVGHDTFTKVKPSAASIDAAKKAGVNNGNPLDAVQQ

In the case of “DyLight 750-SA: DyLight 750 conjugated to streptavidin (SA) [reference compound]”, the “D/P 5X” value in the data set with streptavidin (SA) [1] is recorded as 4.0. Besides, the “D/P 3X” value with streptavidin (SA) [2] is recorded as 2.5.
Turning to `COCCN1/C(=C/C=C/C2=[N+](CCCCCC(=O)ON3C(=O)CCC3=O)c3ccc(S(=O)(=O)[O-])cc3C2(C)CCCS(=O)(=O)O)C(C)(CCCS(=O)(=O)O)c2cc(S(=O)(=O)O)ccc21` (stereo not shown) [550 Compound 1-NHS], the “Performance in direct fluorescence labeling of cell surface proteins” value in the data set with IMR90 cells is “performed equivalently as DyLight 549-NHS”. In data set [3], the “Emission (Em)” value is reported as 572 nm, the “Excitation (Ex)” value came out at 557 nm and the ε is 142,000 M−1cm−1.
With “Alexa 750-SA: Alexa 750 conjugated to streptavidin (SA) [reference compound]”, the “D/P 5X” value in the data set with streptavidin (SA) [1] is listed as 4.7. Also, the “D/P 3X” value with streptavidin (SA) [2] came out at 3.3.
For the molecule `COCCOCC[N+]1=C(/C=C/C=C/C=C2/N(CCCCCC(=O)O)c3ccc(S(=O)(=O)O)cc3C2(C)CCCS(=O)(=O)O)C(C)(CCCS(=O)(=O)O)c2cc(S(=O)(=O)O)ccc21.[Na+].[Na+].[Na+]` (stereo not shown) [650 Compound 2, 2-{(1E,3E)-5-[1-(5-carboxypentyl)-3-methyl-5-sulfo-3-(3-sulfopropyl)-1,3-dihydroindol-(2E)-ylidene]-penta-1,3-dienyl}-1-[2-(2-methoxy-ethoxy)-ethyl]-3-methyl-5-sulfo-3-(3-sulfopropyl)-3H-indolium tri sodium salt], the “Immunofluorescence performance of conjugates compared with commercial DyLight dye” value in the data set on U2OS cells; A550 cells is “at least similar performance to DyLight 649 conjugates (GAM, GAR), and in some cases superior performance”. Further, in data set [4], the “Performance of conjugates (GAM, GAR, SA) in the functional assay in terms of signal-to-noise” value is “superior to DyLight 649 conjugates”.
